The text below walks through data of patent US10932466B2, “Fungicidal compositions” (SYNGENTA PARTICIPATIONS AG, priority 2016, dated 2021).

What all share (assay type): cell-based
The subject of one assay is Septoria tritici. The assay is described as follows: Septoria tritici (leaf blotch) growth inhibition in PDB, 96-well microtiter plate, photometric after 72 hrs. The settings on record: Zymoseptoria tritici; for inhibition at 0.0008 ppm: 1.001 0.0008 ppm alone. On the procedure: I) Septoria tritici (Leaf Blotch): Conidia of the fungus from cryogenic storage were directly mixed into nutrient broth (PDB potato dextrose broth). After placing a (DMSO) solution of the test compounds into a microtiter plate (96-well format), the nutrient broth containing the fungal spores was added. The test plates were incubated at 24 C and the inhibition of growth was determined photometrically after 72 hrs.

The test system of a further assay is Alternaria solani. The assay is described as follows: Alternaria solani (early blight tomato/potato) growth inhibition in PDB, 96-well microtiter plate, photometric after 48 hrs. Particulars: for Compound 1.001 inhibition: 1.001 0.0000 ppm, Table 11; for inhibition at 0.0008 ppm: 1.001 0.0008 ppm alone. On the procedure: III) Altemaria solani (Early Blight Tomato/Potato):
Conidia of the fungus from cryogenic storage were directly mixed into nutrient broth (PDB potato dextrose broth). After placing a (DMSO) solution of the test compounds into a microtiter plate (96-well format), the nutrient broth containing the fungal spores was added. The test plates were incubated at 24 C and the inhibition of growth was determined photometrically after 48 hrs.

In the next assay the test system is Rhizoctonia solani. Description: Rhizoctonia solani (Thanatephorus cucumeris) growth inhibition in PDB, 96-well microtiter plate, photometric and visual after 3-4 days. The settings on record: for inhibition at 0.0063 ppm: 1.001 0.0063 ppm alone; for inhibition at 0.0125 ppm: 1.001 0.0125 ppm alone; for inhibition at 0.025 ppm: 1.001 0.0250 ppm alone; for inhibition at 0.05 ppm: 1.001 0.0500 ppm alone; for inhibition at 0.1 ppm: 1.001 0.1000 ppm alone. The method, then: VI) Rhizoctonia solani (Thanatephorus cucumeris) Mycelial fragments of a newly grown liquid culture of the fungus were directly mixed into nutrient broth (PDB potato dextrose broth). After placing a (DMSO) solution of the test compounds into a microtiter plate (96-well format), the nutrient broth containing the fungal material was added. The test plates were incubated at 24° C. and the inhibition of growth was determined photometrically and visually 3-4 days after application.

The next assay has as its system Botrytis cinerea. Description: Botrytis cinerea (gray mould) growth inhibition in PDB, 96-well microtiter plate, photometric after 72 hrs. The settings on record: for inhibition at 0.0063 ppm: 1.001 0.0063 ppm alone. The method, then: V) Botrytis cinerea (Gray Mould): Conidia of the fungus from cryogenic storage were directly mixed into nutrient broth (PDB potato dextrose broth). After placing a (DMSO) solution of the test compounds into a microtiter plate (96-well format), the nutrient broth containing the fungal spores was added. The test plates were incubated at 24 C and the inhibition of growth was determined photometrically after 72 hrs.

In a further assay the test system is Venturia inaequalis. The assay is described as follows: Venturia inaequalis (apple scab) growth inhibition in PDB, 96-well microtiter plate, photometric after 7 days. Particulars: for inhibition at 0.0016 ppm: 1.001 0.0016 ppm alone; for inhibition at 0.0031 ppm: 1.001 0.0031 ppm alone. On the procedure:
IV) Venturia inaeaualis (Apple Scab): Conidia of the fungus from cryogenic storage were directly mixed into nutrient broth (PDB potato dextrose broth). After placing a (DMSO) solution of the test compounds into a microtiter plate (96-well format), the nutrient broth containing the fungal spores was added. The test plates were incubated at 24 C and the inhibition of growth was determined photometrically after 7 days.

In assay [1] the test system is Mycosphaerella arachidis, syn. Cercospora arachidicola. Description: Mycosphaerella arachidis (peanut brown leaf spot) growth inhibition in PDB, 96-well microtiter plate, photometric after 5-6 days. On the procedure:
II) Mycosphaerella arachidis, syn. Cercospora arachidicola (Peanut Brown Leaf Soot): Conidia of the fungus from cryogenic storage were directly mixed into nutrient broth (PDB potato dextrose broth). After placing a (DMSO) solution of the test compounds into a microtiter plate (96-well format), the nutrient broth containing the fungal spores was added. The test plates were incubated at 24 C and the inhibition of growth was determined photometrically after approximately 5-6 days.

Setting [2] is: Table 8, read-out: Compound 1.001 inhibition.
The mark [3] stands for this setting: Table 14, read-out: Compound 1.001 inhibition.
Setting [4] is: Table 6, read-out: Compound 1.001 inhibition.
Setting [5] is: Table 12, read-out: Compound 1.001 inhibition.

Where two headings read alike, the source gives them in different places.

As for `Cc1nnc(Cl)c(-c2c(F)cccc2F)c1-c1ccccc1` [(IIc), 4-(2,6-difluorophenyl)-3-chloro-6-methyl-5-phenyl-pyridazine], the inhibition (in general, how much of the control response was suppressed) at 0.0156 ppm with Septoria tritici ((IIc) 0.0156 ppm alone, Table 4) was determined as 1%; in the assay on Botrytis cinerea ((IIc) 0.0156 ppm alone, Table 7) it was 5%; in the assay on Venturia inaequalis ((IIc) 0.0156 ppm alone, Table 6, read-out: (IIc) Inhibition), 6%. Also, the inhibition at 0.002 ppm in the assay on Alternaria solani (Alternaria solani, (IIc) 0.0020 ppm alone, Table 5) worked out at 0%. Besides, the inhibition at 0.0313 ppm with Rhizoctonia solani ((IIc) 0.0313 ppm alone, Table 8) came out at 5%; in the assay on Botrytis cinerea ((IIc) 0.0313 ppm alone, Table 7, read-out: (IIc) Inhibition), 4%; in the assay with Venturia inaequalis ((IIc) 0.0313 ppm alone, Table 6, read-out: (IIc) Inhibition), 0%. The compound also registered an inhibition at 0.0625 ppm in the assay on Rhizoctonia solani ((IIc) 0.0625 ppm alone, Table 8) of 31%. In the assay on Rhizoctonia solani ((IIc) 0.1250 ppm alone, Table 8), this compound showed an inhibition at 0.125 ppm of 85%. This compound also gave an inhibition at 0.25 ppm in the assay with Rhizoctonia solani ((IIc) 0.2500 ppm alone, Table 8) of 88%. For the same compound, the inhibition at 0.0078 ppm in the assay with Venturia inaequalis ((IIc) 0.0078 ppm alone, Table 6) is 0%.

For `Cc1nnc(C#N)c(-c2c(F)cccc2F)c1-c1ccccc1` [(IId), 4-(2,6-difluorophenyl)-6-methyl-5-phenyl-pyridazine-3-carbonitrile], the inhibition at 0.0313 ppm turned out to be 3% in the assay on Septoria tritici ((IId) 0.0313 ppm alone, Table 9); 5% in assay [1] ((IId) 0.0313 ppm alone, Table 10); 0% with Botrytis cinerea ((IId) 0.0313 ppm alone, Table 13, read-out: (IId) Inhibition); 15% in the assay with Venturia inaequalis ((IId) 0.0313 ppm alone, Table 12, read-out: (IId) Inhibition). Besides, the inhibition at 0.0625 ppm in the assay with Septoria tritici ((IId) 0.0625 ppm alone, Table 9) turned out to be 8%; with Botrytis cinerea ((IId) 0.0625 ppm alone, Table 13), 0%; in the assay on Venturia inaequalis ((IId) 0.0625 ppm alone, Table 12) it was 0%. In addition, the inhibition at 0.0039 ppm in assay [1] ((IId) 0.0039 ppm alone, Table 10) was found to be 5%. Besides, in the assay on Rhizoctonia solani ((IId) 0.5000 ppm alone, Table 14), at 0.5 ppm the inhibition was 31%. In addition, the inhibition at 0.0156 ppm in the assay on Venturia inaequalis ((IId) 0.0156 ppm alone, Table 12, read-out: (IId) Inhibition) came to 0%.

Consider `CON(C(=O)c1cn(C)nc1C(F)F)C(C)Cc1c(Cl)cc(Cl)cc1Cl` (stereo not drawn) [Compound 1.001, 3-(difluoromethyl)-N-methoxy-1-methyl-N-[1-methyl-2-(2,4,6-trichlorophenyl)ethyl]pyrazole-4-carboxamide], for which the inhibition at 0.0008 ppm in the assay with Septoria tritici (Table 4, read-out: Compound 1.001 inhibition) was found to be 49%; with Septoria tritici (Table 9, read-out: Compound 1.001 inhibition), 45%; with Alternaria solani (Alternaria solani, Table 5, read-out: Compound 1.001 inhibition), 23%; in the assay with Alternaria solani (Alternaria solani, Table 11, read-out: Compound 1.001 inhibition), 34%. In addition, the inhibition at 0.0016 ppm was 81% with Septoria tritici (1.001 0.0016 ppm alone, Table 9, read-out: Compound 1.001 inhibition); 60% in the assay with Alternaria solani (Alternaria solani, 1.001 0.0016 ppm alone, Table 11, read-out: Compound 1.001 inhibition); 62% in the assay with Venturia inaequalis (setting [4]); 50% in the assay on Venturia inaequalis (setting [5]). Besides, the inhibition at 0.0004 ppm was 47% in assay [1] (1.001 0.0004 ppm alone, Table 10, read-out: Compound 1.001 inhibition) and 26% in the assay with Alternaria solani (Alternaria solani, 1.001 0.0004 ppm alone, Table 11, read-out: Compound 1.001 inhibition). Besides, the “Compound 1.001 inhibition” value in the assay with Alternaria solani ((IId) 0.0039 ppm) is 9%; with Alternaria solani ((IId) 0.0078 ppm) it was 6%; in the assay with Alternaria solani ((IId) 0.0156 ppm), 10%; in the assay with Alternaria solani ((IId) 0.0625 ppm), 6%; in the assay on Alternaria solani ((IId) 0.1250 ppm), 0%. Besides, the inhibition at 0.0031 ppm in the assay on Rhizoctonia solani (1.001 0.0031 ppm alone, Table 8, read-out: Compound 1.001 inhibition) came to 13%; with Venturia inaequalis (setting [4]), 84%; with Venturia inaequalis (setting [5]), 81%. Also, the inhibition at 0.0063 ppm in the assay with Rhizoctonia solani (setting [2]) came out at 16%; in the assay on Rhizoctonia solani (setting [3]) it was 0%; in the assay with Botrytis cinerea (Table 7, read-out: Compound 1.001 inhibition), 30%; with Botrytis cinerea (Table 13, read-out: Compound 1.001 inhibition), 34%. Besides, the inhibition at 0.0125 ppm with Rhizoctonia solani (setting [2]) and in the assay with Rhizoctonia solani (setting [3]) was 0% each time. Moreover, the values for the inhibition at 0.025 ppm with Rhizoctonia solani (setting [2]) and in the assay with Rhizoctonia solani (setting [3]) were 0% and 9%, respectively. For the same compound, the values for the inhibition at 0.05 ppm with Rhizoctonia solani (setting [2]) and in the assay with Rhizoctonia solani (setting [3]) were 15% and 0%, respectively. For the same compound, the inhibition at 0.1 ppm in the assay on Rhizoctonia solani (setting [2]) and in the assay with Rhizoctonia solani (setting [3]) was 0% throughout.
